Laboratory results from PubChem BioAssay (NCI).
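Interpolation was linear, between the two tested concentrations surrounding the appropriate level; five concentrations were tested over 48 hours in 96-well plates. TGI is the concentration that stops growth completely.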 Where a SMILES comes first, the peptide text is derived from it. The star is where a group is joined. Fmoc = O=C(OCC1c2ccccc2-c2ccccc21)*; Boc = CC(C)(C)OC(=O)*

Experiments:
Assay in all cases: NCI tumour cell line growth inhibition, 48 h
[1] = test system: 786-0 renal
[2] = test system: NCI-H226 lung
[3] = test system: COLO 205 colon
[4] = test system: BT-549 breast
[5] = test system: MDA-N
[6] = test system: HCT-15 colon
[7] = test system: OVCAR-4 ovarian
[8] = test system: UACC-62 melanoma
[9] = test system: CCRF-CEM leukemia
[10] = test system: OVCAR-5 ovarian
[11] = test system: U251 CNS
[12] = test system: LOX IMVI melanoma
[13] = test system: SF-539 CNS
[14] = test system: MCF7 breast
[15] = test system: SN12C renal
[16] = test system: NCI/ADR-RES ovarian
[17] = test system: HL-60(TB) leukemia
[18] = test system: DU-145 prostate
[19] = test system: OVCAR-3 ovarian
[20] = test system: SNB-19 CNS
[21] = test system: RPMI-8226 leukemia
[22] = test system: OVCAR-8 ovarian
[23] = test system: KM12 colon
[24] = test system: SK-MEL-28 melanoma
[25] = test system: SNB-75 CNS
[26] = test system: MDA-MB-231 breast
[27] = test system: HCT-116 colon
[28] = test system: SK-MEL-5 melanoma
[29] = test system: HS 578T breast
[30] = test system: EKVX NSCLC
[31] = test system: MOLT-4 leukemia
[32] = test system: SK-OV-3 ovarian
[33] = test system: A549 NSCLC
[34] = test system: HCC-2998 colon
[35] = test system: IGROV1 ovarian
[36] = test system: SR leukemia
[37] = test system: HOP-62 NSCLC
[38] = test system: HOP-92 NSCLC
[39] = test system: RXF 393 renal
[40] = test system: K-562 leukemia
[41] = test system: SF-268 CNS
[42] = test system: SF-295 CNS
[43] = test system: PC-3 prostate
[44] = test system: HT29 colon
[45] = test system: T-47D breast
[46] = test system: SW-620 colon
[47] = test system: UO-31 renal
[48] = test system: M14 melanoma
[49] = test system: NCI-H23 lung
[50] = test system: UACC-257 melanoma
[51] = test system: MALME-3M melanoma
[52] = test system: ACHN renal
[53] = test system: MDA-MB-435
[54] = test system: CAKI-1 renal
[55] = test system: TK-10 renal
[56] = test system: NCI-H460 lung
[57] = test system: SK-MEL-2 melanoma
[58] = test system: NCI-H522 lung
[59] = test system: A498 renal

Q: What does the source list for `CC(C)(C)OC(=O)NCCCCC(NC(=O)C(Cc1c[nH]c2ccccc12)NC(=O)OCC1c2ccccc2-c2ccccc21)C(=O)O` (centres undefined) (Fmoc-Trp-Lys(Boc)-OH; configuration not given here)?
A: TGI [1]: > 100 µM; TGI [2]: > 100 µM; TGI [3]: > 100 µM; TGI [4]: > 100 µM; TGI [5]: > 100 µM; TGI [6]: > 100 µM; TGI [7]: > 100 µM; TGI [8]: 42.4 µM; TGI [9]: 61 µM; TGI [10]: > 100 µM; TGI [11]: 31.1 µM; TGI [12]: 46.2 µM; TGI [13]: > 100 µM; TGI [14]: > 100 µM; TGI [15]: > 100 µM; TGI [16]: > 100 µM; TGI [17]: 34 µM; TGI [18]: > 100 µM; TGI [19]: 40.4 µM; TGI [20]: > 100 µM; TGI [21]: 67 µM; TGI [22]: > 100 µM; TGI [23]: > 100 µM; TGI [24]: > 100 µM; TGI [25]: > 100 µM; TGI [26]: 67.9 µM; TGI [27]: > 100 µM; TGI [28]: > 100 µM; TGI [29]: 96.2 µM; TGI [30]: > 100 µM; TGI [31]: 48.2 µM; TGI [32]: 35.6 µM; TGI [33]: > 100 µM; TGI [34]: > 100 µM; TGI [35]: > 100 µM; TGI [36]: 59.3 µM; TGI [37]: > 100 µM; TGI [38]: 67 µM; TGI [39]: > 100 µM; TGI [40]: 38.5 µM; TGI [41]: > 100 µM; TGI [42]: > 100 µM; TGI [43]: > 100 µM; TGI [44]: > 100 µM; TGI [45]: > 100 µM; TGI [46]: > 100 µM; TGI [47]: > 100 µM; TGI [48]: > 100 µM; TGI [49]: > 100 µM; TGI [50]: > 100 µM; TGI [51]: > 100 µM; TGI [52]: > 100 µM; TGI [53]: > 100 µM; TGI [54]: 31.5 µM; TGI [55]: > 100 µM; TGI [56]: > 100 µM; TGI [57]: 54.9 µM

Q: With `Cc1ccc(C)c(C(=N)c2ccccc2Cc2ccccc2)c1` as the compound, how does the TGI [1] read?
A: 32.2 µM

Q: What about the TGI [2] of the same compound?
A: 33.9 µM

Q: And the TGI [3]?
A: 66.9 µM

Q: And the TGI [4]?
A: 83.7 µM

Q: And the TGI [5]?
A: 69.4 µM

Q: And the TGI [6]?
A: > 100 µM

Q: What about the TGI [7] of the same compound?
A: 85.8 µM

Q: What about the TGI [58] of the same compound?
A: 30 µM

Q: And the TGI [8]?
A: 33.4 µM

Q: What about the TGI [10] of the same compound?
A: 98.3 µM

Q: What about the TGI [11] of the same compound?
A: 30.4 µM

Q: What about the TGI [12] of the same compound?
A: 31.7 µM

Q: And the TGI [13]?
A: 33.8 µM

Q: What about the TGI [14] of the same compound?
A: 32.4 µM

Q: And the TGI [15]?
A: 32.2 µM

Q: What about the TGI [16] of the same compound?
A: > 100 µM

Q: What about the TGI [17] of the same compound?
A: 43.6 µM

Q: What about the TGI [18] of the same compound?
A: 48.1 µM

Q: What about the TGI [19] of the same compound?
A: 27.2 µM

Q: And the TGI [20]?
A: > 100 µM

Q: And the TGI [21]?
A: 35.4 µM

Q: And the TGI [22]?
A: > 100 µM

Q: And the TGI [23]?
A: 56.5 µM

Q: And the TGI [24]?
A: 80.1 µM

Q: And the TGI [26]?
A: 64.2 µM

Q: And the TGI [27]?
A: 41.5 µM

Q: And the TGI [28]?
A: 30.5 µM

Q: What about the TGI [29] of the same compound?
A: 20.7 µM

Q: What about the TGI [30] of the same compound?
A: 56.8 µM

Q: What about the TGI [31] of the same compound?
A: 38.2 µM

Q: And the TGI [32]?
A: 79.1 µM

Q: What about the TGI [33] of the same compound?
A: > 100 µM

Q: What about the TGI [34] of the same compound?
A: 31.7 µM

Q: What about the TGI [35] of the same compound?
A: > 100 µM

Q: What about the TGI [36] of the same compound?
A: 41.7 µM

Q: And the TGI [37]?
A: 61.5 µM

Q: What about the TGI [59] of the same compound?
A: 53.9 µM

Q: What about the TGI [38] of the same compound?
A: 46.4 µM

Q: What about the TGI [39] of the same compound?
A: 34.9 µM

Q: And the TGI [40]?
A: 58.7 µM

Q: What about the TGI [41] of the same compound?
A: 46.2 µM

Q: What about the TGI [42] of the same compound?
A: 56 µM

Q: And the TGI [43]?
A: > 100 µM

Q: And the TGI [44]?
A: 33.7 µM

Q: And the TGI [45]?
A: 80.6 µM

Q: What about the TGI [46] of the same compound?
A: > 100 µM

Q: What about the TGI [47] of the same compound?
A: > 100 µM

Q: And the TGI [48]?
A: > 100 µM

Q: And the TGI [49]?
A: > 100 µM

Q: What about the TGI [50] of the same compound?
A: 73.1 µM

Q: What about the TGI [51] of the same compound?
A: 28 µM

Q: And the TGI [52]?
A: 35.7 µM

Q: And the TGI [53]?
A: 47.2 µM

Q: What about the TGI [54] of the same compound?
A: > 100 µM

Q: What about the TGI [55] of the same compound?
A: > 100 µM

Q: What about the TGI [56] of the same compound?
A: 33.2 µM

Q: And the TGI [57]?
A: 32 µM
